The NIST ThermoML archive (doi:10.1021/je050416y)
± gives the expanded uncertainty stated by the source.

Tests used:
[1] = xn = mol fraction of the nth substance listed; details: 101 kPa, Liquid, x2 = 0; for mass density: Vibrating tube method
[2] = 101 kPa, Liquid; for mass density: Vibrating tube method

SMILES | mass density ([1]; 293.15 K) | kinematic viscosity ([1]; 293.15 K) | mass density ([1]; 298.15 K) | kinematic viscosity ([1]; 298.15 K) | mass density ([1]; 303.15 K) | kinematic viscosity ([1]; 303.15 K) | kinematic viscosity ([2]; 293.15 K) | mass density ([2]; 293.15 K) | kinematic viscosity ([2]; 298.15 K) | mass density ([2]; 298.15 K) | kinematic viscosity ([2]; 303.15 K) | mass density ([2]; 303.15 K) | kinematic viscosity ([2]; 308.15 K) | mass density ([2]; 308.15 K) | kinematic viscosity ([2]; 313.15 K) | mass density ([2]; 313.15 K) | kinematic viscosity ([2]; 318.15 K) | mass density ([2]; 318.15 K) | kinematic viscosity ([2]; 323.15 K) | mass density ([2]; 323.15 K) | further results
CCO [ethanol] + CC(C)CCO | 789.7 ± 1 kg/m3 | 1.52e-06 ± 7.2e-08 m2/s | 785.3 ± 1 kg/m3 | 1.39e-06 ± 6.6e-08 m2/s | 780.9 ± 1 kg/m3 | 1.23e-06 ± 5.9e-08 m2/s |  |  |  |  |  |  |  |  |  |  |  |  |  |  | mass density ([1]; 308.15 K): 776.5 ± 1 kg/m3; kinematic viscosity ([1]; 308.15 K): 1.13e-06 ± 5.5e-08 m2/s; mass density ([1]; 313.15 K): 772.2 ± 1 kg/m3; kinematic viscosity ([1]; 313.15 K): 1.02e-06 ± 5.1e-08 m2/s; mass density ([1]; 318.15 K): 767.9 ± 1 kg/m3; kinematic viscosity ([1]; 318.15 K): 9.4e-07 ± 4.7e-08 m2/s; mass density ([1]; 323.15 K): 763.5 ± 1 kg/m3; kinematic viscosity ([1]; 323.15 K): 8.28e-07 ± 4.2e-08 m2/s
CCC(C)CO (stereo not drawn) [2-methyl-1-butanol] |  |  |  |  |  |  | 6.11e-06 ± 2.5e-07 m2/s | 817.6 ± 1 kg/m3 | 5.34e-06 ± 2.3e-07 m2/s | 814.1 ± 1 kg/m3 | 4.69e-06 ± 2e-07 m2/s | 810.5 ± 1 kg/m3 | 4.08e-06 ± 1.8e-07 m2/s | 807.1 ± 1 kg/m3 | 3.54e-06 ± 1.6e-07 m2/s | 803.6 ± 1 kg/m3 | 3.09e-06 ± 1.4e-07 m2/s | 800.1 ± 1 kg/m3 | 2.72e-06 ± 1.2e-07 m2/s | 796.6 ± 1 kg/m3 | 
CCC(C)(C)O [2-methylbutan-2-ol] |  |  |  |  |  |  | 5.11e-06 ± 2.2e-07 m2/s | 813.9 ± 1 kg/m3 | 4.47e-06 ± 2e-07 m2/s | 810.5 ± 1 kg/m3 | 3.91e-06 ± 1.7e-07 m2/s | 807 ± 1 kg/m3 | 3.39e-06 ± 1.5e-07 m2/s | 803.5 ± 1 kg/m3 | 2.91e-06 ± 1.3e-07 m2/s | 800 ± 1 kg/m3 | 2.52e-06 ± 1.1e-07 m2/s | 796.6 ± 1 kg/m3 | 2.09e-06 ± 9.6e-08 m2/s | 793.3 ± 1 kg/m3 | 
CCO [ethanol] + CCC(C)CO | 789.7 ± 1 kg/m3 | 1.52e-06 ± 7.2e-08 m2/s | 785.3 ± 1 kg/m3 | 1.39e-06 ± 6.6e-08 m2/s | 780.9 ± 1 kg/m3 | 1.23e-06 ± 5.9e-08 m2/s |  |  |  |  |  |  |  |  |  |  |  |  |  |  | mass density ([1]; 308.15 K): 776.5 ± 1 kg/m3; kinematic viscosity ([1]; 308.15 K): 1.13e-06 ± 5.5e-08 m2/s; mass density ([1]; 313.15 K): 772.2 ± 1 kg/m3; kinematic viscosity ([1]; 313.15 K): 1.02e-06 ± 5.1e-08 m2/s; mass density ([1]; 318.15 K): 767.9 ± 1 kg/m3; kinematic viscosity ([1]; 318.15 K): 9.4e-07 ± 4.7e-08 m2/s; mass density ([1]; 323.15 K): 763.5 ± 1 kg/m3; kinematic viscosity ([1]; 323.15 K): 8.28e-07 ± 4.2e-08 m2/s
CCO [ethanol] |  |  |  |  |  |  | 1.52e-06 ± 7.2e-08 m2/s | 789.7 ± 1 kg/m3 | 1.39e-06 ± 6.6e-08 m2/s | 785.3 ± 1 kg/m3 | 1.23e-06 ± 5.9e-08 m2/s | 780.9 ± 1 kg/m3 | 1.13e-06 ± 5.5e-08 m2/s | 776.5 ± 1 kg/m3 | 1.02e-06 ± 5.1e-08 m2/s | 772.2 ± 1 kg/m3 | 9.4e-07 ± 4.7e-08 m2/s | 767.9 ± 1 kg/m3 | 8.28e-07 ± 4.2e-08 m2/s | 763.5 ± 1 kg/m3 | 
CCO [ethanol] + CCC(C)(C)O | 789.7 ± 1 kg/m3 | 1.52e-06 ± 7.2e-08 m2/s | 785.3 ± 1 kg/m3 | 1.39e-06 ± 6.6e-08 m2/s | 780.9 ± 1 kg/m3 | 1.23e-06 ± 5.9e-08 m2/s |  |  |  |  |  |  |  |  |  |  |  |  |  |  | mass density ([1]; 308.15 K): 776.5 ± 1 kg/m3; kinematic viscosity ([1]; 308.15 K): 1.13e-06 ± 5.5e-08 m2/s; mass density ([1]; 313.15 K): 772.2 ± 1 kg/m3; kinematic viscosity ([1]; 313.15 K): 1.02e-06 ± 5.1e-08 m2/s; mass density ([1]; 318.15 K): 767.9 ± 1 kg/m3; kinematic viscosity ([1]; 318.15 K): 9.4e-07 ± 4.7e-08 m2/s; mass density ([1]; 323.15 K): 763.5 ± 1 kg/m3; kinematic viscosity ([1]; 323.15 K): 8.28e-07 ± 4.2e-08 m2/s
CC(C)CCO [3-methylbutan-1-ol] |  |  |  |  |  |  | 5e-06 ± 2.2e-07 m2/s | 808.3 ± 1 kg/m3 | 4.35e-06 ± 1.9e-07 m2/s | 804.6 ± 1 kg/m3 | 3.81e-06 ± 1.7e-07 m2/s | 800.8 ± 1 kg/m3 | 3.33e-06 ± 1.5e-07 m2/s | 797.1 ± 1 kg/m3 | 2.94e-06 ± 1.3e-07 m2/s | 793.2 ± 1 kg/m3 | 2.59e-06 ± 1.2e-07 m2/s | 789.5 ± 1 kg/m3 | 2.29e-06 ± 1e-07 m2/s | 785.7 ± 1 kg/m3 | 
